Test results published in US6835715B1, “Mammalian dihydroouabain-like factor and therapeutic compositions” (University of Louisville Research Foundation, Inc., priority 1999, dated 2004).

Tests used:
[1] = test system: Na+,K+-ATPase α-subunits (porcine cerebral cortical tissue); assay: Ouabain-stimulated 32Pi phosphorylation of Na+,K+-ATPase alpha subunit; type: biochemical; conditions: equimolar concentrations; ouabain = 100%; listed as Dho
Description: The ouabain-stimulated phosphorylation of Na^+, K^+-ATPase by phosphate was performed as described in Huang et al., (1994) with some minor modifications. Since the covalently phosphorylated intermediate of the sodium pump formed from inorganic phosphorous (^32Pi) is alkali-labile (acid-stable phosphenzyme intermediate), acidic pH gel electrophoresis was used to resolve the radioactively labeled protein species. Briefly, 60 μl aliquots containing 100-200 μg of porcine cerebral cortical tissues (PCC) were pre-incubated at room temperature for 25 min. with 20 μl of sample in the reaction buffer (50 mM Tris-HCL and 2 mM MgCl2, pH 7.2). A positive control was pre-incubated with 20 μl of a 1 mM ouabain solution also, a negative control was pre-incubated with 20 μl of buffer alone. 10 μl of ^32Pi (1 mCi in 100 μl) was diluted with 250 μl of phosphoric acid and purified through 0.2 μm filter to remove polyphosphates. At the end of the incubation, 20 μl of the ^32Pi filtrate (30 μM, 8 uCi) was added to the mixture and allowed to incubate at room temperature for an additional 15 minutes. The reaction was terminated by the addition of 1 ml 8% HCLO4 which precipitated the proteins and left unincorporated ^32Pi in solution. […] Autoradiograms were quantitated using a soft laser scanning densitometer. […]

anti-ouabain antibody = assay: Ouabain EIA, cross-reactivity with anti-ouabain antibody; type: binding; conditions: for cross-reactivity with ouabain antibody: ouabain = 100%
Description: UV spectral properties, molar absorptivity, and concentrations of these endogenous factors were calculated.
(§1) OLF was measured using ouabain EIA. This assay uses ouabain covalently bound to the microtiter plate to compete with unbound samples or standards for binding to a constant amount of anti-ouabain antibody (Harris et al., 1991). Dihydroouabain-like immunoreactivity was measured by EIA using a polyclonal dihydroouabain-specific antibody prepared according to our specifications by HTI Bio-Product Inc (Ramona, Calif.). The antibody production strategy was as follows: dihydroouabain (dho) was conjugated to keyhole limpet hemocyanin (KLH) through the rhamnose sugar ring and the resulting conjugate was injected in three rabbits. Blood samples from the rabbits were drawn three weeks after the primary injection, and every two weeks after subsequent booster injections.
Two specific antibodies, one against ouabain and one against dihydroouabain, were used to characterize OLF and DH-OLF. Both of these antibodies are sensitive to structural changes at the lactone ring epitope of these molecules. […] The concentrations were determined using molar absorptivities as described above.

[2] = test system: anti-dihydroouabain antibody; assay: Dihydroouabain EIA, cross-reactivity with anti-dihydroouabain antibody; type: binding, rabbit; conditions: dihydroouabain = 100%
Description: as §1, with “injections. […]” for “injections.”
Briefly, immunoassay plates were coated with approximately 0.5 μg dho-BSA conjugate/well for a minimum of 18 hrs. at 4° C. […] Color development was monitored at 650 nm for a maximum of 30 min. after which the reaction was stopped with TMB Stop buffer and the plate was then read at 450 nm. The readings were adjusted with a system blank and for non-specific binding.
Two specific antibodies, one against ouabain and one against dihydroouabain, were used to characterize OLF and DH-OLF. […] The concentrations were determined using molar absorptivities as described above.

[3] = biological target: porcine cerebral cortex Na+,K+-ATPase; assay: Inhibition of Na+,K+-ATPase catalytic activity (phosphate release from ATP); type: biochemical
Description: Dried frozen powder of porcine cerebral cortical tissue (PCC) was reconstituted at 1 Unit/ml in buffer containing; 50 mM Tris-HCl and 2 mM MgCl2, at a pH of 7.2. The reconstituted tissue was then washed three times and resuspended in the same buffer. The protein concentration was determined by BIO-RAD Protein Assay (Bio-Rad, Hercules, Calif.), adjusted to about 1 mg/ml and used both in the catalytic inhibition and ouabain-stimulated phosphorylation experiments (PAGE and Western analysis). The inhibition assay was performed briefly by pipetting 20 μl of sample containing the desired concentration of glycoside (Tris buffer was used for no-inhibitor control) into a well of a microtiter plate placed in a 37° C. water bath for 10 minutes. […] After the incubation period, we added 150 μl of molybdate solution (per liter, 1.0 mmol of molybdate, 11 mmol of sulfuric acid, and 142 ml of Tween 80: methanol solution (12:88 by vol). After 30 minutes of incubation, color development was allowed to proceed for a maximum of 30 min. after which the color intensity was measured by pipetting 150 μl of the reaction mixture from each well to a corresponding well on another microtiter plate. The color intensity is proportional to the release of phosphate ions which is a direct indicator of ATP breakdown and therefore NKA activity. The absorbances were measured simultaneously at 340 nm. […]

Question: Which results are given for `C[C@@H]1O[C@@H](O[C@H]2C[C@@H](O)[C@]3(CO)[C@H]4[C@H](O)C[C@]5(C)[C@@H]([C@@H]6COC(=O)C6)CC[C@]5(O)[C@@H]4CC[C@]3(O)C2)[C@H](O)[C@H](O)[C@H]1O` [dihydroouabain, Dihydroouabain]?
Answer: phosphorylation activity relative to ouabain [1]: 82%; affinity for anti-ouabain antibody (anti-ouabain antibody): little affinity; cross-reactivity with ouabain antibody (anti-ouabain antibody): 2-3%; cross-reactivity with dihydroouabain antibody [2]: 100%

Question: Which “cross-reactivity with ouabain antibody” value (anti-ouabain antibody) does the source give for `C[C@@H]1O[C@@H](O[C@H]2C[C@@H](O)[C@]3(CO)[C@H]4[C@H](O)C[C@]5(C)[C@@H](C6=CC(=O)OC6)CC[C@]5(O)[C@@H]4CC[C@]3(O)C2)[C@H](O)[C@H](O)[C@H]1O` [ouabain, Ouabain] here?
Answer: 100%

Question: What about the “cross-reactivity with dihydroouabain antibody” value [2] of the same molecule?
Answer: 0.1%

Question: How did the IC50 ([3]; porcine cerebral cortex enzyme, read-out: IC50 for inhibiting the catalytic activity of the Na+,K+-ATPase enzyme) turn out when `C[C@@H]1O[C@@H](O[C@H]2C[C@@H](O)[C@]3(CO)[C@H]4[C@H](O)C[C@]5(C)[C@@H]([C@@H]6COC(=O)C6)CC[C@]5(O)[C@@H]4CC[C@]3(O)C2)[C@H](O)[C@H](O)[C@H]1O` [dho-B] was run?
Answer: 1.7 µM

Question: And the “times less potent than ouabain for inhibition of Na+,K+-ATPase” value ([3]; relative to ouabain)?
Answer: 3 times
